Source: patent US20150190416A1, “FILAGGRIN PRODUCTION PROMOTER, THERAPEUTIC AGENT FOR DISEASES ASSOCIATED WITH REDUCTION IN PRODUCTION OF FILAGGRIN, AND METHOD FOR SCREENING FOR SAID THERAPEUTIC AGENT” (KYOTO UNIVERSITY, priority 2012, published 2015)

Experiments:
[1] = tested on: FLG monomer; experiment: FLG monomer in three-dimensional cultured skin, Western blotting (Example 11); format: cell-based, human; settings: 1 μM, immunoblotting
Method: In this example, the expression-increasing effect of Compound 1 on FLG monomer was examined by using a three-dimensional cultured skin. The expression of the FLG monomer was confirmed by Western blotting.
In this example, the same procedures as those in the steps 1) to 3) of Example 10 were conducted. It should be noted that as a medicament, D) Comparative Compound 3 (M344) was used, as well as A) Compound 1 and C) Comparative Compound 2 of Example 10.
4) The three-dimensional cultured skin obtained in the same manner as in the steps 1) to 3) of Example 10 was recovered, and was cut into pieces with scissors. Then, 100 μl of Lysis buffer (0.1 M Tris-HCl (pH 9.0), 6 M Urea, 1% 2-mercapto-ethanol, 1% SDS, 1 mM EDTA, and Protease inhibitor cocktail) were added and the cells were homogenized with an electrically powered pestle. The homogenized cells were centrifuged at 15,000 rpm at 4° C. for 20 minutes, and the supernatant was recovered to be used as a sample for measurement. The total protein in the sample was quantified by using a protein assay reagent (Bio-Rad Laboratories, Inc.) according to the manufacturer's protocol. The protein was adjusted so that each sample contained 15 μg protein/lane, and the samples were subjected to electrophoresis by SDS-PAGE (Invitrogen, NuPAE Novex Bis-Tris mini Gel 4 to 12%) under the conditions of 100 V and 2 hours. As a marker, Precision Plus Protein Standards (Bio-Rad Laboratories, Inc.) was used. The proteins separated by the electrophoresis were transferred to a PVDF membrane (blotting), and the expression of FLG monomer was confirmed by using an anti-FLG antibody (Filaggrin AKH1, Santa Crus). At that time, Anti-mouse IgG-HRP (GE Healthcare) was used as a secondary antibody, and Amersham ECL Plus Western Blotting Detection Reagents (GE Healthcare) was used as a color developer.

[2] = tested on: GPR142; experiment: Action on adenylate cyclase activity (cAMP) in GPR142-overexpressing HEK293T cells (Examples 8 and 9); format: cell-based, human; settings: forskolin 10 μM, IBMX 1 mM
Method: In this example, the cAMP production-suppressing effect of Compound 1 was confirmed.
1) 6×10^4 cells/well of HEK293T cells were plated on a collagen-coated 24-well plate, a culture medium containing DMEM medium (Invitrogen) supplemented with penicillin (50 μg/ml), streptomycin (50 μg/ml), and fetal bovine serum (FBS) (10%, v/v) was added to the plate, and the cells were cultured under the conditions of 37° C. and 5% CO2.
2) A GPR142PCXN mammalian expression vector was prepared in the same manner as in the step 2) of Example 7.
3) After culture for 1 day under the conditions of the step 1), HEK293T cells were transfected with 0.2 μg of the GPR142PCXN mammalian expression vector per well by using a transfection reagent Fugene™ HD (Promega Corporation) according to the manufacturer's protocol. As a control, cells transfected only with the PCXN mammalian expression vector were used.
4) After culture for 1 day after the transfection described above, 1 mM of isobutylmethylxanthine (IBMX), which was a cAMP phosphodiesterase inhibitory substance, was added to HEK293T cells, and thereafter, the cells were cultured for 10 minutes at 37° C.
5) Next, the medium was exchanged for the culture medium to which 0.1 nM to 1000 nM of a DMSO solution of Compound 1, 10 μM of forskolin, and 1 mM of IBMX per well were added, and the cells were further cultured for 20 minutes at 37° C. As a control, a solvent (vehicle), 10 μM of forskolin, and 1 mM of IBMX were added.
6) The cells cultured in the step 5) were lysed by 0.1 mol/L of HCl. The cAMP concentration within the cells was measured by using Cyclic AMP EIA Kit (Cayman Chemical Company) according to the manufacturer's protocol. The result is shown as the ratio (%) of the cAMP concentration in the cells treated with Compound 1 with respect to the cAMP concentration in the control example defined as 100%.
In this example, the cAMP production-suppressing effect of Compound 2 or 3 was confirmed.
HEK293T cells were cultured in the same manner as in the steps 1) to 4) of Example 8. Next, the cells were cultured in the same manner as in the step 5) of Example 8 except that, in the step 5) of Example 8, each of a methanol solution of Compound 3, a DMSO solution of Compound 2, and a DMSO solution of Comparative Compound 2 was used at 1,000 nM per well instead of Compound 1. The cAMP concentration in the cultured cells was measured in the same manner as in the step 6) of Example 8.

Structure (SMILES): O=C(CCCCCN1C(=O)c2cccc3cccc(c23)C1=O)NO [Comparative Compound 2, 6-(1,3-Dioxo-1H,3H-benzo[de]isoquinolin-2-yl)hexanoic acid hydroxyamide, reference compound]
- production of FLG monomer [1]: clear production of FLG monomer was not observed
- cAMP production-suppressing action, in words ([2]; GPR142-overexpressing HEK293T cells, 1,000 nM): no cAMP production-suppressing action was observed

Structure (SMILES): CCc1ccc(OCc2ccccc2C(=O)Nc2ccc3nc(C)cc(N)c3c2)cc1.Cl [Compound 1, N-(4-Amino-2-methyl-6-quinolyl)-2-[(4-ethylphenoxy)methyl]benzamide hydrochloride]
- production of FLG monomer [1]: clear production of FLG monomer was confirmed
- production of pro-FLG [1]: production of a large amount of pro-FLG
- cAMP production ([2]; GPR142-overexpressing HEK293T cells, 0.1 nM to 1000 nM, 20 minutes): decreased cAMP production via GPR142 dose-dependently

Structure (SMILES): CC[C@H](C)[C@H]1O[C@]2(CC[C@@H]1C)C[C@@H]1C[C@@H](C/C=C(\C)[C@@H](O[C@H]3C[C@H](OC)[C@@H](O[C@H]4C[C@H](OC)[C@@H](O)[C@H](C)O4)[C@H](C)O3)[C@@H](C)/C=C/C=C3\CO[C@@H]4[C@H](O)C(C)=C[C@@H](C(=O)O1)[C@]34O)O2 [Compound 2, Ivermectin, reference compound]
- decrease of cAMP production ([2]; GPR142-overexpressing HEK293T cells, 1,000 nM, 20 minutes): about 20%
